Data from patent US20260007758A1, “SO[…]-2 RECEPTOR (SST2R) NON-PEPTIDE DRUG CONJUGATES AND USES THEREOF” (Crinetics Pharmaceuticals, Inc., priority 2024, published 2026).
pEC50: −log10 of the molar value.

Key:
Assay type in all cases: cell-based
SST2 = biological target: T1, SST2 (Homo sapiens, UniProt P30874); assay: PathHunter CHO-K1 SST2 Internalization Assay; settings: PathHunter CHO-K1 SST2 cells; 90 min at 37 C; luminescence; read-out: Internalization EC50
T1 construct: host or cells: PathHunter CHO-K1 SST2 cells
Description: NDCs of the present invention were assessed in vitro using the human PathHunter CHO-K1 SST2 β-arrestin2 and PathHunter CHO-K1 SST2 Internalization Assays from DiscoverX. The CHO-K cells were seeded in 20 μLs of cell culture medium in a white-walled 384 well tissue culture-compatible plate at a density of 2500 cells/well. After a 48-hour incubation, cells were treated with 5 μLs of a 1:3 serially diluted SST2 NDC prepared at 5× concentration with a final top compound concentration of 10 uM for 90 min at 37 C and in 5% CO2. 11 dilutions were tested as well as one treatment that was compound free. After incubation, the media containing treatments were discarded and 20 μL of a working solution of Beta-Glo from Promega Beta-Go Assay System was added to each well. The plate was then incubated for 60 min at room temperature in the dark. Luminescence was measured using a Tecan plate reader. IC50 curves were generated using the nonlinear regression analysis (four-parameters) with GraphPad Prism 9. Results were the average of duplicates and are corrected for background.

[1] = biological target: T2, human somatostatin receptor subtype 2 (Homo sapiens, UniProt P30874); assay: Functional assay for SSTR2 agonists (HTRF cAMP); settings: CHO-K1 cells stably expressing human SST2; NKH477-stimulated cAMP; 20 min at 37 C; read-out: hSST2 cAMP Avg EC50
T2 construct: expressed in transfected cells
Description: General overview: All five SSTR subtypes are Gi coupled G-protein coupled receptors (GPCRs) that lead to decreases in intracellular cyclic AMP (cAMP) when activated by an agonist. Therefore, measurement of intracellular cAMP levels can be used to assess whether compounds of the invention are agonists of SSTR subtypes (John Kelly, Troy Stevens, W. Joseph Thompson, and Roland Seifert, Current Protocols in Pharmacology. 2005, 2.2.1-2.2). One example of an intracellular cAMP assay is described below.
Four days prior to the assay, 2,000 Chinese hamster ovary cells (CHO-K1, ATCC #CCL-61) stably expressing the human somatostatin receptor subtype 2 are plated in each well of a 96-well tissue culture-treated plate in Ham's F12 growth media (ThermoFisher #10-080-CM) supplemented with 10% donor bovine serum (Gemini Bio-Products #100-506), 100 U/mL penicillin; 100 ug/mL streptomycin, 2 mM L-glutamine (Gemini Bio-Products #400-110) and 0.2 mg/mL hygromycin B (GoldBio #31282-04-9). The cells are cultured at 37° C., 5% CO2 and 95% humidity. cAMP is measured with HTRF dynamic cAMP assay (Cisbio. #62AM5PEJ) per manufacturer's instructions. […] The cells are incubated for 20 minutes at 37° C. (the final concentration of the compounds of the invention are typically 0-10,000 nM). The cells are treated with 50 μL of lysis buffer (HRTF cAMP kit, Cisbio) and incubated at room temperature for 30 minutes with rotary shaking at 600 rpm, and then diluted with 150 μL of stimulation buffer and shaken for an additional five minutes at 300 rpm. The lysate is transferred to 384-well plates and incubated for 1-24 hours at room temperature, and cAMP accumulation is detected by d2-labeled cAMP and Anti-cAMP-Cryptate. The time-resolved fluorescent signal is read using a m1000 Pro (Tecan) or CLARIOStar (BMG Labtech) microplate reader, where the samples are excited with light at 340 nm and emission light is measured at 620 nm and 665 nm. The data is expressed as a calculation of the fluorescence ratio (665 nm/620 nm). The intracellular cAMP concentrations are calculated by regression to a standard curve and are plotted vs, the concentration of the compounds of the invention. The EC50 of the compounds are calculated using standard methods. All data manipulations are in GraphPad Prism v9 (GraphPad, San Diego, CA).

[2] = system: NCI-H524 human small cell lung cancer cells; assay: H524 assay: inhibition of cell proliferation (CellTiter Glo); settings: 2 h treatment, washout, additional 70 h incubation
Description: NDCs of the present invention were assessed in an in vitro assay evaluating the inhibition of cell proliferation. NCI-H524 (ATCC) human small cell lung cancer cells were plated in 96-well V-bottom plates (Costar) at a concentration of 5,000 cells/well. 24 h later, the cells were treated for 2 h with a NDC. NDC starting dose was 1 uM and two-fold serial dilutions were done for a total of 11 points. After 2 h of treatment, cells were spun down, and the drug-containing media was removed, and fresh complete media was added and used to resuspend the cells, which were spun again. After removal of the media, the cells were resuspended in complete medium and incubated for an additional 70 h. Cell proliferation was assessed using the CellTiter Glo Assay according to the standard protocol (Promega). Luminescence was measured using a TECAN plate reader. Percent proliferation inhibition was calculated using the following formula: % inhibition=(Luminescence Control−Luminescence Treatment)/Luminescence Control*100. IC50 curves were generated using the nonlinear regression analysis (four-parameter) with GraphPad Prism 9.

T1 sequence (P30874 whole entry): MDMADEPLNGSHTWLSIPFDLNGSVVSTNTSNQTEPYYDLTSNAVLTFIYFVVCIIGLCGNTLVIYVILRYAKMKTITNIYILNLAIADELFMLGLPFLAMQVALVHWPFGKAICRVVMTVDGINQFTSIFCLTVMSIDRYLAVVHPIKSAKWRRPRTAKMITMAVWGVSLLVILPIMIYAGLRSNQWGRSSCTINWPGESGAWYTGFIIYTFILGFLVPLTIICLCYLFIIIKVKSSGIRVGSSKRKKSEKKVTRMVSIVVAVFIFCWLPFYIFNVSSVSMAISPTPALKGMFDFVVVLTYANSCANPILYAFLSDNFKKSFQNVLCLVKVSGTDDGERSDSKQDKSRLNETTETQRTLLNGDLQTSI
T2 sequence (P30874 whole entry): as above

Structure (SMILES) | pEC50 (SST2) | pEC50 [1] | pEC50 [2]
CC[C@H](C)[C@@H]([C@@H](CC(=O)N1CCC[C@H]1[C@H](OC)[C@@H](C)C(=O)N[C@H](C)[C@@H](O)c1ccccc1)OC)N(C)C(=O)[C@@H](NC(=O)[C@H](C(C)C)N(C)C(=O)OCc1ccc(NC(=O)[C@H](C)NC(=O)[C@@H](NC(=O)CCOCCC(=O)NCCNc2ncc(-c3cc(C)cc(F)c3)c(N3CCC(N)CC3)c2-c2nc3cc(F)c(F)cc3[nH]2)C(C)C)c(O[C@@H]2O[C@H](C(=O)O)[C@@H](O)[C@H](O)[C@H]2O)c1)C(C)C [Compound 108] | 8.09 | 9.74 | 7.28
CC[C@H](C)[C@@H]([C@@H](CC(=O)N1CCC[C@H]1[C@H](OC)[C@@H](C)C(=O)N[C@H](C)[C@@H](O)c1ccccc1)OC)N(C)C(=O)[C@@H](NC(=O)[C@H](C(C)C)N(C)C(=O)OCc1ccc(NC(=O)[C@H](CCCNC(N)=O)NC(=O)[C@@H](NC(=O)c2cc(NCCOCCOCCOCCC(=O)NCCNc3ncc(-c4cc(C)cc(F)c4)c(N4CCC(N)CC4)c3-c3nc4ccc(Cl)cc4[nH]3)cc(C(=O)OC)c2)C(C)C)cc1)C(C)C [Compound 178] | 8.25 | 9.57 | 6.21
CC[C@H](C)[C@@H]([C@@H](CC(=O)N1CCC[C@H]1[C@H](OC)[C@@H](C)C(=O)N[C@H](C)[C@@H](O)c1ccccc1)OC)N(C)C(=O)[C@@H](NC(=O)[C@H](C(C)C)N(C)C(=O)OCc1ccc(NC(=O)[C@H](CCCNC(N)=O)NC(=O)[C@@H](NC(=O)C[C@@H](N)C(=O)NCCOCCC(=O)NCCNc2ncc(-c3cc(C)cc(F)c3)c(N3CCC(N)CC3)c2-c2nc3ccc(Cl)cc3[nH]2)C(C)C)c(OCC(=O)O)c1)C(C)C [Compound 22] | 7.77 | 9.77 | 7.66
CC[C@@H](C)[C@H]([C@H](CC(=O)N1CCCC1[C@@H](OC)[C@H](C)C(=O)N[C@@H](C)[C@H](O)c1ccccc1)OC)N(C)C(=O)[C@H](NC(=O)[C@@H](C(C)C)N(C)C(=O)OCc1ccc(NC(=O)[C@H](C)NC(=O)[C@H](NC(=O)CCOCCC(=O)NCCNc2ncc(-c3cc(C)cc(F)c3)c(N3CCC(N)CC3)c2-c2nc3ccc(Cl)cc3[nH]2)C(C)C)c(O[C@H]2O[C@@H](C(=O)O)[C@H](O)[C@@H](O)[C@@H]2O)c1)C(C)C (stereo partly drawn) [Compound 240] | 8.22 | 9.92 | 5.51
CC[C@H](C)[C@@H]([C@@H](CC(=O)N1CCC[C@H]1[C@H](OC)[C@@H](C)C(=O)N[C@H](C)[C@@H](O)c1ccccc1)OC)N(C)C(=O)[C@@H](NC(=O)[C@H](C(C)C)N(C)C(=O)OCc1ccc(NC(=O)[C@H](CCCNC(N)=O)NC(=O)[C@@H](NC(=O)CCOCCC(=O)N(C)CC(=O)NCCNc2ncc(-c3cc(C)cc(F)c3)c(N3CCC(N)CC3)c2-c2nc3ccc(Cl)cc3[nH]2)C(C)C)c(O[C@@H]2O[C@H](C(=O)NCCO)[C@@H](O)[C@H](O)[C@H]2O)c1)C(C)C [Compound 207] | 8.23 | 9.64 | 8.08
CC[C@H](C)[C@@H]([C@@H](CC(=O)N1CCC[C@H]1[C@H](OC)[C@@H](C)C(=O)N[C@H](C)[C@@H](O)c1ccccc1)OC)N(C)C(=O)[C@@H](NC(=O)[C@H](C(C)C)N(C)C(=O)OCc1ccc(NC(=O)[C@H](CCCNC(N)=O)NC(=O)[C@@H](NC(=O)CCOCCC(=O)NCCNc2ncc(-c3cc(C)cc(F)c3)c(N3CCC(N)CC3)c2-c2nc3ccc(Cl)cc3[nH]2)C(C)C)c(O[C@@H]2O[C@H](C(=O)NCCS(=O)(=O)O)[C@@H](O)[C@H](O)[C@H]2O)c1)C(C)C [Compound 208] | 8.51 | 10.21 | 8.05
CC[C@H](C)[C@@H]([C@@H](CC(=O)N1CCC[C@H]1[C@H](OC)[C@@H](C)C(=O)N[C@H](C)[C@@H](O)c1ccccc1)OC)N(C)C(=O)[C@@H](NC(=O)[C@H](C(C)C)N(C)C(=O)OCc1ccc(NC(=O)[C@H](CCCNC(N)=O)NC(=O)[C@@H](NC(=O)c2cc(NC(=O)C[C@@H](N)C(=O)NCCOCCC(=O)NCCNc3ncc(-c4cc(C)cc(F)c4)c(N4CCC(N)CC4)c3-c3nc4ccc(Cl)cc4[nH]3)cc(C(=O)NCC(=O)O)c2)C(C)C)cc1)C(C)C [Compound 156] | 7.85 | 9.55 | 6.85
CC[C@H](C)[C@@H]([C@@H](CC(=O)N1CCC[C@H]1[C@H](OC)[C@@H](C)C(=O)N[C@H](C)[C@@H](O)c1ccccc1)OC)N(C)C(=O)[C@@H](NC(=O)[C@H](C(C)C)N(C)C(=O)OCc1ccc(NC(=O)[C@H](CCCNC(N)=O)NC(=O)[C@@H](NC(=O)CCOCCC(=O)NCCNc2ncc(-c3cc(C)cc(F)c3)c(N3CCC(N)CC3)c2-c2nc3ccc(Cl)cc3[nH]2)C(C)C)c(O[C@@H]2O[C@H](C(=O)NCCNC(=O)CCOCCOCCOCCOCCC(=O)O)[C@@H](O)[C@H](O)[C@H]2O)c1)C(C)C [Compound 52] | 8.46 | 9.85 | 7.77
CC[C@H](C)[C@@H]([C@@H](CC(=O)N1CCC[C@H]1[C@H](OC)[C@@H](C)C(=O)N[C@H](C)[C@@H](O)c1ccccc1)OC)N(C)C(=O)[C@@H](NC(=O)[C@H](C(C)C)N(C)C(=O)OCc1ccc(NC(=O)[C@H](CCCNC(N)=O)NC(=O)[C@@H](NC(=O)C[C@@H](N)C(=O)NCCOCCC(=O)NCCNc2ncc(-c3cc(C)cc(F)c3)c(N3CCC(N)CC3)c2-c2nc3ccc(Cl)cc3[nH]2)C(C)C)c(CCC(=O)O)c1)C(C)C [Compound 205] | 8.28 | 10.07 | 7.43
CC[C@H](C)[C@@H]([C@@H](CC(=O)N1CCC[C@H]1[C@H](OC)[C@@H](C)C(=O)N[C@H](C)[C@@H](O)c1ccccc1)OC)N(C)C(=O)[C@@H](NC(=O)[C@H](C(C)C)N(C)C(=O)OCc1ccc(NC(=O)[C@H](CCCNC(N)=O)NC(=O)[C@@H](NC(=O)c2cc(NC(=O)CCOCCn3cc(CCC(=O)NCCNc4ncc(-c5cc(C)cc(F)c5)c(N5CCC(N)CC5)c4-c4nc5ccc(Cl)cc5[nH]4)nn3)cc(C(=O)NCC(=O)O)c2)C(C)C)cc1)C(C)C [Compound 155] | 8.00 | 9.36 | 6.52
CC[C@H](C)[C@@H]([C@@H](CC(=O)N1CCC[C@H]1[C@H](OC)[C@@H](C)C(=O)N[C@H](C)[C@@H](O)c1ccccc1)OC)N(C)C(=O)[C@@H](NC(=O)C(C(C)C)N(C)C(=O)OCc1ccc(NC(=O)[C@H](CCCNC(N)=O)NC(=O)[C@@H](NC(=O)CCOCCC(=O)NCCNc2ncc(-c3cc(C)cc(F)c3)c(N3CCC(N)CC3)c2-c2nc3ccc(Cl)cc3[nH]2)C(C)C)c(O[C@@H]2O[C@H](C(=O)N3CCCCC3)[C@@H](O)[C@H](O)[C@H]2O)c1)C(C)C (stereo partly drawn) [Compound 228] | 8.00 | 9.59 | 7.44
